Experimental data reported in PubChem BioAssay AID2202554 (NIEHS Division of Translational Toxicology (DTT)).
Records with an inconclusive call do not appear. Activity calls are given as the source filed them. The rule behind the calls is not given here.

These compounds were tested on S. typhimurium/E. coli reverse mutation, colony counts (assay: Bacterial reverse mutation test (aka Ames test) summary data).
How it was run: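 S. typhimurium his⁻ strains (TA97–TA1538) and E. coli WP2 uvrA pKM101 trp⁻, dosed over a range with or without rat, hamster or mouse liver S9. Preincubated 20 min at 37° C (or plate incorporation), plated in agar, incubated usually two days. Revertant colonies counted against negative controls.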
In the case of `FC(F)(F)C(Cl)Br` (centres undefined), the outcome was “inactive; negative”. `CCCCCN(CCCCC)CCCCC` was tested, and the outcome was “inactive; negative”. For `CCCCCCC=O`, the outcome was “inactive; negative”. For `Nc1cc(Cl)cc(Cl)c1`, the outcome was “inactive; negative”. In the case of `C=C1C/C(=C/C)C(=O)O[C@@H]2CCN3CC=C(COC(=O)[C@@]1(O)CO)[C@H]23`, the outcome was “active; positive”. `Cc1ccc(NC(N)=O)cc1` was tested, and the outcome was “inactive; negative”. With `O=c1cc(O)nc[nH]1` the outcome was “inactive; negative”. `Nc1ccc(-c2ccc(N)cc2S(=O)(=O)O)c(S(=O)(=O)O)c1` was tested, and the outcome was “inactive; negative”. With `CC(C)CC(C)Nc1ccc(Nc2ccccc2)cc1` (centres undefined) the outcome was “inactive; negative”. `OCC(Br)=C(Br)CO` was tested, and the outcome was “active; positive”. With `[O]=[Mo](=[O])=[O]` the outcome was “inactive; negative”. `Clc1ccc(C(Cl)(Cl)Cl)cc1Cl` was tested, and the outcome was “active; positive”. `O=C(O)C1=NN(c2ccc(S(=O)(=O)O)cc2)C(=O)C1N=Nc1ccc(S(=O)(=O)[O-])cc1.O=C(O)C1=NN(c2ccc(S(=O)(=O)O)cc2)C(=O)C1N=Nc1ccc(S(=O)(=O)[O-])cc1.O=C(O)C1=NN(c2ccc(S(=O)(=O)O)cc2)C(=O)C1N=Nc1ccc(S(=O)(=O)[O-])cc1.[Al+3]` (centres undefined) was tested, and the outcome was “inactive; negative”. In the case of `C[C@@H]1C[C@@H]([C@H](O)CC2CC(=O)NC(=O)C2)C(=O)[C@@H](C)C1`, the outcome was “inactive; negative”. In the case of `O=C(O)c1c(Cl)cccc1Cl`, the outcome was “inactive; negative”. For `Cc1cc(N=Nc2c(O)ccc3ccccc23)c(S(=O)(=O)O)cc1Cl`, the outcome was “active; weakly positive”. In the case of `FC(Cl)(Cl)Cl`, the outcome was “inactive; negative”. With `ClC=C(Cl)Cl` the outcome was “inactive; negative”. In the case of `C=CC(=O)OCC(CO)(COC(=O)C=C)COC(=O)C=C`, the outcome was “inactive; negative”. `O=[N+]([O-])c1cccc2ccccc12` was tested, and the outcome was “active; positive”. In the case of `CC(CO)[N+](=O)[O-]` (centres undefined), the outcome was “inactive; negative”. `C(=NC1CCCCC1)=NC1CCCCC1` was tested, and the outcome was “inactive; negative”. With `CCCCNC(=O)NS(=O)(=O)c1ccc(C)cc1` the outcome was “inactive; negative”. In the case of `CCCCCCCCCCCC(=O)O`, the outcome was “inactive; negative”. With `Clc1ccc(C(c2ccccc2Cl)C(Cl)Cl)cc1` (centres undefined) the outcome was “inactive; negative”. With `CCCCCCCCCCCCCCCCCC[N+](C)(C)Cc1ccccc1` the outcome was “inactive; negative”. `CC=Cc1ccc(O)c(OC)c1` was tested, and the outcome was “inactive; negative”. For `CCC(C)=NO`, the outcome was “active; positive”. With `O=C(O)/C=C/C(=O)O` the outcome was “inactive; negative”. `Cc1c(Br)c(Br)c(Br)c(Br)c1Br` was tested, and the outcome was “inactive; negative”. With `FC(F)(F)c1cccc(Cl)c1` the outcome was “inactive; negative”. For `CC1=C(/C=C/C(C)=C/C=C/C(C)=C/C=C/C=C(C)/C=C/C=C(C)/C=C/C2=C(C)CCCC2(C)C)C(C)(C)CCC1`, the outcome was “active; positive”. With `Nc1ccc(N)cc1` the outcome was “active; positive”. In the case of `CCCCCCCCCCCCCl`, the outcome was “inactive; negative”. In the case of `Cc1ccccc1C#N`, the outcome was “inactive; negative”. With `Nc1ccccc1-c1ccccc1` the outcome was “active; positive”. With `CNCCO` the outcome was “inactive; negative”. For `Nc1ncn[nH]1`, the outcome was “inactive; negative”. For `CCCCCCCCCC(=O)O`, the outcome was “inactive; negative”. In the case of `CC(CCl)OP(=O)(OC(C)CCl)OC(C)CCl` (centres undefined), the outcome was “inactive; negative”. For `c1ccc(OP(Oc2ccccc2)Oc2ccccc2)cc1`, the outcome was “inactive; negative”. For `C1CNCCN1`, the outcome was “inactive; negative”. In the case of `Cc1cccc([N+](=O)[O-])c1N`, the outcome was “active; positive”. For `CC(=O)Nc1ccc(C(=O)O)cc1`, the outcome was “inactive; negative”. With `CN1CSC(=S)N(C)C1` the outcome was “active; weakly positive”. `O=[N+]([O-])c1cc([N+](=O)[O-])c2ccccc2c1` was tested, and the outcome was “active; positive”. With `Nc1ccccc1O` the outcome was “active; positive”. `CCOC(C)OCC` was tested, and the outcome was “active; positive”. In the case of `OCCNCCO`, the outcome was “inactive; negative”. `COc1ccccc1O` was tested, and the outcome was “inactive; negative”. For `Oc1ccc(Cl)cc1Cc1cc(Cl)ccc1O`, the outcome was “active; positive”. For `CCc1cccc(N)c1`, the outcome was “inactive; negative”. With `CCCCCCCCn1sccc1=O` the outcome was “inactive; negative”. For `CCN(CC)C(=S)S`, the outcome was “inactive; negative”. For `CC(=O)c1ccccn1`, the outcome was “inactive; negative”. In the case of `O=C1O[C@H]([C@@H](O)CO)C(O)=C1O`, the outcome was “active; weakly positive”. For `CC(=O)c1nccs1`, the outcome was “inactive; negative”. `Oc1ccc2cc(SSc3ccc4cc(O)ccc4c3)ccc2c1` was tested, and the outcome was “inactive; negative”. For `Brc1cccc(-c2ccccc2)c1`, the outcome was “inactive; negative”. For `Cc1ncc[nH]1`, the outcome was “inactive; negative”. In the case of `CCCCN1CCCCC1C(=O)Nc1c(C)cccc1C` (centres undefined), the outcome was “inactive; negative”. With `CC(Cl)CCl` (centres undefined) the outcome was “active; weakly positive”. In the case of `C=C(C)C(=O)NCCCN(C)C`, the outcome was “inactive; negative”. For `C=C(C)/C([O-])=N/[N+](C)(C)CC(C)O` (centres undefined), the outcome was “inactive; negative”. `Cc1nnc(NS(=O)(=O)c2ccc(N)cc2)s1` was tested, and the outcome was “inactive; negative”. `CCOC(=O)CC(SP(=S)(OC)OC)C(=O)OCC` (centres undefined) was tested, and the outcome was “inactive; negative”. For `C=C(Cl)Cl`, the outcome was “inactive; negative”. For `CCCNCCC`, the outcome was “inactive; negative”. In the case of `NCCCCCCCCCCC(=O)O`, the outcome was “inactive; negative”. In the case of `CC(C)(Cl)[N+](=O)[O-]`, the outcome was “active; weakly positive”. `CC(C)(C)c1ccc(O)c(O)c1` was tested, and the outcome was “inactive; negative”. `O=C1CCO1` was tested, and the outcome was “active; positive”. `CC(C)CCC(C)Nc1ccc(NC(C)CCC(C)C)cc1` (centres undefined) was tested, and the outcome was “inactive; negative”. `O=C(O)CCCc1ccc(N(CCCl)CCCl)cc1` was tested, and the outcome was “active; positive”. With `C[Si](C)(C)N[Si](C)(C)C` the outcome was “inactive; negative”. `CC(C)(C)CC(C)(C)c1ccc(OCCOCC[N+](C)(C)Cc2ccccc2)cc1` was tested, and the outcome was “inactive; negative”. In the case of `N[C@@H](CCC(=O)O)C(=O)O`, the outcome was “inactive; negative”. For `O=C(CCl)c1ccccc1`, the outcome was “inactive; negative”. `Clc1ccc(C(c2ccc(Cl)cc2)c2ccc(Cl)cc2)cc1` was tested, and the outcome was “inactive; negative”. `CC1(C)S[C@@H]2[C@H](NC(=O)COc3ccccc3)C(=O)N2[C@H]1C(=O)O` was tested, and the outcome was “inactive; negative”. With `CCCCC(CC)COCCC#N` (centres undefined) the outcome was “inactive; negative”. With `COC=O` the outcome was “inactive; negative”. `CCCCCCOCC1CO1` (centres undefined) was tested, and the outcome was “active; positive”. `Nc1ccccn1` was tested, and the outcome was “inactive; negative”. With `Cc1ccccc1C(OCCN(C)C)c1ccccc1` (centres undefined) the outcome was “inactive; negative”. `Oc1c(I)cc(Cl)c2cccnc12` was tested, and the outcome was “inactive; negative”. `Nc1ccc(N=Nc2ccccc2)cc1` was tested, and the outcome was “active; positive”. `COCC1CO1` (centres undefined) was tested, and the outcome was “active; positive”. In the case of `CC=C1CC2C=CC1C2` (centres undefined), the outcome was “inactive; negative”. For `CCOP(=S)(OCC)SC1OCCOC1SP(=S)(OCC)OCC` (centres undefined), the outcome was “active; positive”. `CC(C)(C)OOC(=O)c1ccccc1` was tested, and the outcome was “active; positive”. For `c1ccc2sc(SSc3nc4ccccc4s3)nc2c1`, the outcome was “active; positive”. For `O=c1cc(-c2ccc(O)cc2)oc2cc(O)cc(O)c12`, the outcome was “inactive; negative”. In the case of `O=C(CO)CO`, the outcome was “active; positive”. For `CCC(C)(C)OC`, the outcome was “inactive; negative”. `NC(=O)/C(=C\c1ccc([N+](=O)[O-])o1)c1ccco1` was tested, and the outcome was “active; positive”. For `Cc1cc(C)c(S(=O)(=O)O)cc1N=Nc1cc(S(=O)(=O)O)c2ccccc2c1O`, the outcome was “inactive; negative”. `NC(N)=NC(=O)c1nc(Cl)c(N)nc1N` was tested, and the outcome was “active; positive”. For `C[CH2][Pb]([Cl])([CH2]C)[CH2]C`, the outcome was “inactive; negative”. With `O=C(Nc1ccccc1SSc1ccccc1NC(=O)c1ccccc1)c1ccccc1` the outcome was “inactive; negative”. With `CCCCCCCCC` the outcome was “inactive; negative”. In the case of `COc1ccc(N)cc1N`, the outcome was “active; positive”. `CCCCCCCCCCCCOS(=O)(=O)O` was tested, and the outcome was “inactive; negative”. For `CCCCC(=O)OCC`, the outcome was “inactive; negative”. `OCC(O)CCl` (centres undefined) was tested, and the outcome was “active; positive”. In the case of `CCNC(=O)Nc1ncc([N+](=O)[O-])s1`, the outcome was “active; positive”. `O=[N+]([O-])c1ccc(Cl)cc1Cl` was tested, and the outcome was “active; positive”. With `O=C1c2c(O)ccc(O)c2C(=O)c2c(NCCO)ccc(NCCO)c21` the outcome was “active; positive”. With `N#CC(Br)Br` the outcome was “active; positive”. For `C[N+](=O)[O-]`, the outcome was “inactive; negative”. In the case of `CCCCCCCCCCCOC(=O)c1ccccc1C(=O)OCCCCCCCCCCC`, the outcome was “inactive; negative”. For `CCCCOCCCC`, the outcome was “inactive; negative”. `CCC(C)C` was tested, and the outcome was “inactive; negative”. `C=CCNC(=S)NCC=C` was tested, and the outcome was “inactive; negative”. With `Cl/C=C\Cl` the outcome was “inactive; negative”. With `Nc1ccc(-c2ccc(N)c(Cl)c2)cc1Cl` the outcome was “active; positive”. For `CCOc1ccc(NC(C)=O)cc1N`, the outcome was “active; positive”. In the case of `CC(CO)(CO)[N+](=O)[O-]`, the outcome was “inactive; negative”. With `O=[N+]([O-])c1ccccc1Nc1ccccc1` the outcome was “inactive; negative”. `CC(CCN(C)C)N(C)C` (centres undefined) was tested, and the outcome was “inactive; negative”. With `O=C(O)c1ccc2c(c1)C(=O)OC2=O` the outcome was “inactive; negative”. In the case of `Cc1cc(N)ccc1-c1ccc(N)cc1C`, the outcome was “active; positive”. For `COc1cc(-c2ccc(N=Nc3c(S(=O)(=O)O)cc4cc(S(=O)(=O)O)cc(O)c4c3O)c(OC)c2)ccc1N=Nc1c(S(=O)(=O)O)cc2cc(S(=O)(=O)O)cc(O)c2c1O`, the outcome was “inactive; negative”. In the case of `O=[N+]([O-])c1ccc(Nc2ccc(O)cc2)c([N+](=O)[O-])c1`, the outcome was “active; positive”. `CN1C(CSCC(F)(F)F)Nc2cc(Cl)c(S(N)(=O)=O)cc2S1(=O)=O` (centres undefined) was tested, and the outcome was “inactive; negative”. For `COC[CH2][Hg+]`, the outcome was “inactive; negative”. With `O=C=Nc1ccc(N=C=O)cc1` the outcome was “inactive; negative”. `N=C1C=CC(=C(c2ccc(N)cc2)c2ccc(N)cc2)C=C1` was tested, and the outcome was “active; positive”. In the case of `Cc1ccc(N)c(C)c1`, the outcome was “active; positive”.
